4 compounds from publication PMC4575030 (PLoS ONE, 2015) can be followed below.

Series [1] relates to rat spinal nerve ligation model. Put plainly: Tactile allodynia following spinal nerve ligation (SNL). Format: in vivo. As to conditions: gabapentin positive control, 75 min after dosing; statistically significant. From the text: A decrease in tactile response threshold, using calibrated von Frey filaments (Stoelting Co., Wood Dale, IL), was used as a measure of tactile allodynia following spinal nerve ligation (SNL). Prior to surgery, each animal underwent baseline testing to determine suitability for the assay. Briefly, animals were placed on a raised platform with a grid meshed floor. The distance between the mesh was ¼”. Once acclimated, each animal received a series of trials according to the up-down method described by Dixon. Animals showing a response to less than 4 g were deemed already sensitive to the stimulus and were removed. A maximal fiber of 15 g was employed as a cut-off threshold. Surgery was then performed with a procedure slightly modified by that reported by Kim and Chung. Briefly, the left L5 spinal nerve was carefully isolated from the surrounding tissue. Using 5–0 silk suture, a tight ligature was placed around L5 nerve. Muscle and skin were then closed using 4–0 absorbable suture and wound clips. Animals were allowed to recover and were carefully monitored for seven days to ensure proper healing and ensure there was no mutilation of the affected limb. On day 21 post-surgery, animals were again tested to ensure the development of tactile allodynia. […] Animals were then randomized into groups and dosed with the test compound, gabapentin, or vehicle and assessed as stated above. […]

A further series relates to rat CFA model of pain. Put plainly: CFA-induced thermal hyperalgesia. It is filed as in vivo. The conditions noted are these: morphine s.c., 30 min after dosing, positive control. The method, then:
CFA-induced thermal hyperalgesia was measured using the Thermal Plantar Analgesia Instrument (Ugo Basile, Italy). Intensity of the radiant heat stimulus was adjusted to achieve a withdrawal latency of approximately 13 s in naïve animals. On test day one, animals were placed on the apparatus in their individual testing chambers with an absorbent towel at the bottom and allowed to habituate for at least 30 minutes. The towel was then removed and animals were allowed to acclimate for at least 15 minutes more. After habituation, animals were placed back in their home cages until the following day. On test day two, animals were placed back in the testing chambers until calm (typically 20 minutes). The thermal device was positioned on the center of the left hind paw and the test was started. The time for the animal to withdraw its paw from the thermal stimulus was recorded. A cut-off of 30 seconds was used to prevent tissue damage. Few trials went past 20 seconds and none past 25 seconds. This procedure was repeated for three trials per animal, each separated by at least 5 min, and trials were averaged to determine baseline withdrawal latencies. After determining baseline measures, each animal received an injection of 50 μl CFA (1:1 emulsion with PBS, Sigma, St. Louis, MO) into the plantar side of the left hind paw with a 26 gauge needle. Animals were then placed back in their home cages until the following day. Approximately 24 h after the CFA injection, withdrawal latencies to heat were determined as described above. Animals were then randomized based on their Post-CFA baseline score and treated with the test compound or vehicle. […] The experimenter was blinded to drug treatment during this assay. Percent return to baseline latency was used as the endpoint of the assay.

The subject of series [2] is rat formalin model of pain. Kind of series: Formalin test (formalin-induced flinching). It is filed as in vivo. The conditions noted are these: for Reduction in formalin flinching, result in words: rat formalin test; for Decrease in formalin flinching: phase 2 (10 to 40 min), percent of vehicle; for Analgesic efficacy: rat formalin model, significant (p < 0.05) decrease in flinching at a dose without a reduction in open field movement that obviated the result. The method, then: Formalin-induced flinching was measured using the Automated Nociception Analyzer (ANA) (University Anesthesia Research & Development Group, La Jolla, CA). Rats were habituated to the ANA testing chambers for at least 30 minutes prior to the formalin injection. At test time, each rat was removed from the testing chamber and gently wrapped in a towel. 50 μL of 2.5% formalin solution was injected into the dorsal surface of the left hind paw with a 30 gauge needle. A small metal band was then affixed to the plantar side of the injected paw with one drop of super glue. The animal was then unwrapped from the towel, placed back in the testing chamber, and flinching behavior was scored for 40 minutes by the ANA software. While minimized, non-painful paw movement from the natural activity of an alert animal could be erroneously binned by the automated recording system as a nociceptive behavior. These behaviors are not subtracted from the flinching total. […] Total flinching behavior was used as the endpoint of the assay.

The nature of series [3]: Terminal plasma and brain concentrations after behavioral testing. Format: in vivo, rat. The conditions noted are these: for Effective [plasma]: mean terminal plasma concentration at the lowest effective dose in the rat formalin test.
The nature of series [4]: In vitro plasma protein binding. It is filed as in vitro ADME.
Another series deals with naïve rats. Kind of series: Open field activity (basic movement). The conditions noted are these: formalin-naïve rats. Format: in vivo, rat. The method, then:
Basic movement was measured using the Photobeam Activity System Open Field (San Diego Instruments, San Diego, CA) equipped with 48 infrared photocell emitters and detectors. Photobeams used to measure vertical movement were positioned 14 cm above the test chamber floor. Each testing chamber was made of Plexiglas (41 x 41 x 36 cm) and was devoid of any bedding. At the beginning of the test session, each animal was placed in a separate testing chamber and the room lights were turned off. Basic movement was measured for 30 minutes.

For another series, the target named is T1, hNav1.7 (Homo sapiens, UniProt Q15858).
T1 construct: expressed in transfected cells; host or cells: HEK 293
Put plainly: Manual whole cell patch clamp electrophysiology on HEK 293 cells stably expressing hNav1.7. It is filed as cell-based. Here is the method:
Except as indicated, recordings to determine potency of aminotriazines on Nav1.7 were made with manual electrophysiology. HEK 293 cells stably expressing hNav1.7 were voltage-clamped using the whole cell patch clamp configuration. Cells were plated onto 35 mm culture dishes 0–24 hours before recording, and tissue culture medium was exchanged for external solution containing (in mM) 140 NaCl, 5 KCl, 2 CaCl2, 1 MgCl2, 10 HEPES, 11 glucose, pH 7.4 with NaOH. Patch pipettes were pulled from borosilicate glass capillaries (1.2 mm outer diameter, World Precision Instruments, Sarasota, FL) with a P-97 pipette puller (Sutter Instruments, Novato, CA) and backfilled with internal solution containing (in mM) 62.5 CsCl, 75 CsF, 2.5 MgCl2, 5 EGTA, 10 HEPES, pH 7.25 with CsOH. Pipette resistances were between 1.5 and 2.0 MΩ. After formation of the whole-cell configuration, cells were lifted off the dish bottom with the patch pipette and positioned directly in front of a microarray of glass tubes (each tube internal diameter ~ 1 mm) with each tube containing continuously flowing control or test solution. A full current-voltage relation was recorded from each cell, and cells with poor space clamp as indicated by discontinuous I-V relation or by prolonged or nonexponential current kinetics were discarded. Solution switching was accomplished by moving the microarray with computer control via an RSC-160 rapid solution exchanger (Bio-Logic, Claix, France). Currents were recorded with an Axopatch 200B patch-clamp amplifier driven by pCLAMP software, filtered (4-pole Bessel) at 5 kHz during acquisition, and digitized at 20 kHz using pClamp9.2. Whole cell capacitance and series resistance were compensated at 0%- 80%, and reported voltages were uncorrected for liquid junction potentials. Recordings were made at room temperature. Concentration-response curves were taken by measuring inward Nav1.7 current every five to six seconds with a 10 ms to 20 ms depolarization to near the peak of the current-voltage relation, before and after steady-state inhibition by a given concentration of aminotriazine. For concentration response curves on partially inactivated channels, holding voltage was set to produce 20% fractional inactivation. […] Occasionally two compound concentrations were tested in parallel without resetting the voltage, if inhibition was rapid and the current level steady. […] Concentration response curves on non-inactivated channels generally were taken with multiple concentrations added in series without washoff of the previous concentration.
Background: The patch-clamp technique gives a direct electrical read-out from membranes.

Another series concerns the target rat Nav1.7 (Rattus norvegicus, UniProt O08562). Put plainly: PatchXpress automated electrophysiology on rat Nav1.7. As to conditions: 20%-inactivated rat Nav1.7. It is filed as cell-based.
The mark [5] stands for this setting: IC50 (μM) 20%-inactivated, 20%-inactivated human Nav1.7, holding voltage set to produce 20% fractional inactivation.
Setting [6] is: non-inactivated human Nav1.7, holding voltage -140 mV or occasionally -120 mV, peak concentration tested 10 μM, read-out: IC50 (μM) Non-inactivated.

Each structure is given as a SMILES string. Structures can show the parent of a compound that is named as a salt. Where two headings read alike, the source gives them in different places.

T1 sequence (Q15858 whole entry): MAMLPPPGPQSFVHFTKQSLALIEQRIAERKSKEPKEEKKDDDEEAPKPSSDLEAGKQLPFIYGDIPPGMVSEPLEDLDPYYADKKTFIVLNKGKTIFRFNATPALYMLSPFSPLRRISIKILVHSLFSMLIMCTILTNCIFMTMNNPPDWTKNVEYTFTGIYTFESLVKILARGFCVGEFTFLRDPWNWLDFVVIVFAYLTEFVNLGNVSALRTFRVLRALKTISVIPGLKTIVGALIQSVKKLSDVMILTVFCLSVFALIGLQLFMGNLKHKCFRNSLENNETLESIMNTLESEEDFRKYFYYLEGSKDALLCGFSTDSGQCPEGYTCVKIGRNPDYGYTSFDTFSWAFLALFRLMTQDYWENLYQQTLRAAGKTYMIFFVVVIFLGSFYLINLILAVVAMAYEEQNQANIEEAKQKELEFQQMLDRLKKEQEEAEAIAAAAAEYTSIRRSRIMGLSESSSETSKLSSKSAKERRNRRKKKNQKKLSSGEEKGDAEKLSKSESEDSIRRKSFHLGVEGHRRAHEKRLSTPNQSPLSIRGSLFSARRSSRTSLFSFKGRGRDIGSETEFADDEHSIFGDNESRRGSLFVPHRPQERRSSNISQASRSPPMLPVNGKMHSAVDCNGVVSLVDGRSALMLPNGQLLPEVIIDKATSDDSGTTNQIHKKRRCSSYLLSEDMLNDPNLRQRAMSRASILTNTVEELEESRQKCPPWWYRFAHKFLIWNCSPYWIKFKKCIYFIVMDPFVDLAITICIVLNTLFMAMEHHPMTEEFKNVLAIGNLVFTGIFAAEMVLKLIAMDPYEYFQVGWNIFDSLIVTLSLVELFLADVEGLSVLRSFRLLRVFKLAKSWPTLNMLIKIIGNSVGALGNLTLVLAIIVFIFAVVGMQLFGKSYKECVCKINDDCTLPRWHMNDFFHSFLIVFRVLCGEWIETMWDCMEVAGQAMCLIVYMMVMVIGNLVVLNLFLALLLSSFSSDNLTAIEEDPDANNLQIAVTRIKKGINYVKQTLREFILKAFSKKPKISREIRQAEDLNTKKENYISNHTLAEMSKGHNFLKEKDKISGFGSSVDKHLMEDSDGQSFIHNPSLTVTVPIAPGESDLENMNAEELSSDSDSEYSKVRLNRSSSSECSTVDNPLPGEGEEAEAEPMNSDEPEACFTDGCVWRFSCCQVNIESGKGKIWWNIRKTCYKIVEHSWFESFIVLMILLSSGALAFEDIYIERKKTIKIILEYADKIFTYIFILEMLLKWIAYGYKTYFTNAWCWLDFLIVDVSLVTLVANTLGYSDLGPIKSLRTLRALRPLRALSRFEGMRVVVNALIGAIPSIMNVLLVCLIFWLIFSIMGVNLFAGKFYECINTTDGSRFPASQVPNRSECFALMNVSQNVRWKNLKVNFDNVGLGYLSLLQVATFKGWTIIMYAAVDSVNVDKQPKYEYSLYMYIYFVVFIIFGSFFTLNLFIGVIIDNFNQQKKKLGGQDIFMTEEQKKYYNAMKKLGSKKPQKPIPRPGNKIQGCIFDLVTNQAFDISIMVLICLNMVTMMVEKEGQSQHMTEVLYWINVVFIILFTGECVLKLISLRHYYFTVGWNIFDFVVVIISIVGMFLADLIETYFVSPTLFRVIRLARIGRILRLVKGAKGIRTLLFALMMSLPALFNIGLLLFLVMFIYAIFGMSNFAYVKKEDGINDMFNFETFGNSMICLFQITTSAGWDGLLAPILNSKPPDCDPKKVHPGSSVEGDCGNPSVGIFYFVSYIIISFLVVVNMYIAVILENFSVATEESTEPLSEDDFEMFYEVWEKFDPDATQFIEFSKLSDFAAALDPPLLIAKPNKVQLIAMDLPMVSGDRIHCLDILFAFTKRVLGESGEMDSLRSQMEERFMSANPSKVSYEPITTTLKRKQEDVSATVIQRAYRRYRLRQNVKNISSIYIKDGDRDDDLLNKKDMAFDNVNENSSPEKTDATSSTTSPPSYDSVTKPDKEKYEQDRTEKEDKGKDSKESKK
Chain of rat Nav1.7 (O08562 whole entry): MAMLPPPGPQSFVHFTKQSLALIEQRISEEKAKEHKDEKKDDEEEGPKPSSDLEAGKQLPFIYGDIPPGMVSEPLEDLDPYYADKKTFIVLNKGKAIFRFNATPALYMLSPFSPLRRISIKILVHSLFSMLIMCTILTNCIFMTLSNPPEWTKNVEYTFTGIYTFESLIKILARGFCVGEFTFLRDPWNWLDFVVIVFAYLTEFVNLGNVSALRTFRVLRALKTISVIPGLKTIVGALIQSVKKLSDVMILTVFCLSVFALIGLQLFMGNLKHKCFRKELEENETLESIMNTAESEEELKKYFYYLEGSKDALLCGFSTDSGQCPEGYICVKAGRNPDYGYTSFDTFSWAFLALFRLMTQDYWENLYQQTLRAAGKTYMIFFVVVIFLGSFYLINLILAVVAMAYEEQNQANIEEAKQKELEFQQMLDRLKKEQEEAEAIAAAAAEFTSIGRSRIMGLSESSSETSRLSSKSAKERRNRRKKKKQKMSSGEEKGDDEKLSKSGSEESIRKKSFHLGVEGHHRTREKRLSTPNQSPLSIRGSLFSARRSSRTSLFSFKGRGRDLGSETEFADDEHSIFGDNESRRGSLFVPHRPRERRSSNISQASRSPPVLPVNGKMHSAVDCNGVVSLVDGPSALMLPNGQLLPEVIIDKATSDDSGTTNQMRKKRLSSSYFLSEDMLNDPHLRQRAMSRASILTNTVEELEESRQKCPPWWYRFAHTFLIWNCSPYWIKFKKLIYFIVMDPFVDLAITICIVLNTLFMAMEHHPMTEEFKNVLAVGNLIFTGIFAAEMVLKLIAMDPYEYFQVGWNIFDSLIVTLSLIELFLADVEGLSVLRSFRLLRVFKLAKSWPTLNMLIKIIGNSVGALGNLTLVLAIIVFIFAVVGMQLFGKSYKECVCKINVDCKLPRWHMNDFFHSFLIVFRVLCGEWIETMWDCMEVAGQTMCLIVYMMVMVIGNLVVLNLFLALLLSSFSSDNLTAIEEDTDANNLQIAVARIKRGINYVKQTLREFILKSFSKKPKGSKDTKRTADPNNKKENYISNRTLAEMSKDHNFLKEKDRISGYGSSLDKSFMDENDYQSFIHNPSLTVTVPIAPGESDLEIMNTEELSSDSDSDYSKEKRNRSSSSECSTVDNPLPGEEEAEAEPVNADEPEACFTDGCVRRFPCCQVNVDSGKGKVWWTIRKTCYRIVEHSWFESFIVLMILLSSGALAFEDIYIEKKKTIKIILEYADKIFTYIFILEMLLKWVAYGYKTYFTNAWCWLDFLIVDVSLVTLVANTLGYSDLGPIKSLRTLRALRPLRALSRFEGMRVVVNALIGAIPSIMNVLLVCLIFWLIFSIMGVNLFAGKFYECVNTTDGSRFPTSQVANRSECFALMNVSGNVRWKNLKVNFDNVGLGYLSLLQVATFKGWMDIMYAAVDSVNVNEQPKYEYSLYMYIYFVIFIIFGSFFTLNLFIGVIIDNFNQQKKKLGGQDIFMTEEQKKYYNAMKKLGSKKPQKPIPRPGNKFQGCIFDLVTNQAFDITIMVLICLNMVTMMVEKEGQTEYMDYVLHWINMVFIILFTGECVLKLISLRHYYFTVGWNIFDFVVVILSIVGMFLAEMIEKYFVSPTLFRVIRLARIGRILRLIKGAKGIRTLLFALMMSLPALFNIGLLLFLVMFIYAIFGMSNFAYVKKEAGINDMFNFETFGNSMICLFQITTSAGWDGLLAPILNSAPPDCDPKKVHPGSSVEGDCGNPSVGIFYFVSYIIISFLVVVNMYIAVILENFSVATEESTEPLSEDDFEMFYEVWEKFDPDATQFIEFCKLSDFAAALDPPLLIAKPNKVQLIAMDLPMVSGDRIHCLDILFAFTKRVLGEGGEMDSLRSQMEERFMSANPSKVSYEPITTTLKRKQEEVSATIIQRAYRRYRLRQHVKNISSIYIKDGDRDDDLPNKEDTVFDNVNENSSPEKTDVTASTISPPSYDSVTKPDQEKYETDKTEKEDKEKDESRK

With `NCC1(CC(=O)O)CCCCC1` [gabapentin, reference compound], the “Reversal of tactile allodynia compared to the vehicle group” value in series [1] turned out to be 44%.

In the case of `CN1CC[C@]23c4c5ccc(O)c4O[C@H]2[C@@H](O)C=C[C@H]3[C@H]1C5` [morphine, Morphine sulfate, reference compound], the “Average reversal of thermal hyperalgesia compared to baseline” value with rat CFA model of pain was found to be 87%. The “Total reduction in phase 2 flinching as percent of vehicle” value in series [2] (morphine 2 mg/kg s.c., positive control) turned out to be 68%. Further, the “Reduction in formalin flinching, result in words” value (from here on “Reduction in formalin flinching”) in series [2] was “statistically significant decrease in flinching compared to the vehicle group”.

What is called Kp is tissue or fluid exposure divided by exposure in the circulation. A word on the fraction unbound: it is free concentration divided by total concentration. A high value points to weak binding. Broadly, the IC50 is the point on the concentration scale where inhibition reaches its midpoint. `CC(=O)Nc1cc(Nc2ncnc(N3CC=C(c4ccc(C#N)cc4)CC3)n2)ccc1F` [Compound E, N-(5-((4-(4-(4-cyanophenyl)-3,6-dihydro-1(2H)-pyridinyl)-1,3,5-triazin-2-yl)amino)-2-fluorophenyl)acetamide]: the Kp in series [3] (brain and plasma, rat, ratio of concentrations measured following the formalin test) was found to be 0.49. The “Effective [plasma]” value in series [3] is 6.14 µM. Further, the fraction unbound in series [4] is 0.009. The “Decrease in basic movement” value in the series with naïve rats (10 mg/kg p.o., negative value = increase) is reported as 2%; in the series with naïve rats (30 mg/kg p.o.), 29%; with naïve rats (100 mg/kg p.o.), 29%. The values for the 50% inhibitory concentration (IC50) against hNav1.7 (setting [5]), at hNav1.7 (setting [6]) and at rat Nav1.7 were 0.09 µM, 2.1 µM and 3500 nM, respectively. Moreover, the “Decrease in formalin flinching” value in series [2] (10 mg/kg p.o.) was determined as 18%; in series [2] (30 mg/kg p.o.), 62%; in series [2] (100 mg/kg p.o.), 83%. In addition, the Analgesic efficacy result in series [2] is “Yes”. In series [2], the “Reduction in formalin flinching” value was “statistically significant and plasma concentration-dependent reduction in formalin flinching”.

For `CC(=O)Nc1cccc(Nc2ncnc(N3CCC(Oc4ccc(Cl)c(C)c4)CC3)n2)c1C` [Compound B, N-(3-((4-(4-(4-chloro-3-methylphenoxy)-1-piperidinyl)-1,3,5-triazin-2-yl)amino)-2-methylphenyl)acetamide], the “Effective [plasma]” value in series [3] worked out at 8.75 µM. The fraction unbound in series [4] is 0.006. In addition, the “Decrease in basic movement” value in the series on naïve rats (30 mg/kg p.o.) is reported as 5.6%; in the series on naïve rats (60 mg/kg p.o.) it was 19%. The results for the IC50 on hNav1.7 (setting [5]), on hNav1.7 (setting [6]) and at rat Nav1.7 were 0.5 µM, more than 10 µM and 3500 nM, respectively. In addition, the “Decrease in formalin flinching” value came out at 17% in series [2] (10 mg/kg p.o.), 30% in series [2] (30 mg/kg p.o.) and 39% in series [2] (60 mg/kg p.o.). Moreover, in series [2], the Analgesic efficacy result is given as “Yes”. In series [2], the “Reduction in formalin flinching” value was “statistically significant and plasma concentration-dependent reduction in formalin flinching”.
